According to US20230130066A1, “USE OF CYCLODEXTRINS IN DISEASES AND DISORDERS INVOLVING PHOSPHOLIPID DYSREGULATION” (priority 2017, published 2023):
“Also recorded” adds a separate entry of the source. Like-named read-outs stand apart in the source and are kept apart here. Marks after values point to notes of the source that are not given here.

How the values were obtained:
[1] = animal studies; cited from earlier work
[2] = Table 3; cited from earlier work
[3] = system: HaCaT keratinocytes; conditions: v. βCD; cited from earlier work
[4] = cited from earlier work
[5] = 12 mM cyclodextrin, 5 μM A2E, blue-light irradiation or 1 d in the dark; cited from earlier work
[6] = system: human keratinocytes; conditions: cited from earlier work
[7] = system: rats; conditions: rat, in vivo, iv; cited from earlier work
[8] = system: erythrocytes; conditions: cited from earlier work
[9] = LDL-receptor knockout mice, Western diet (21% milk fat) with 2.1% α-CD; cited from earlier work
[10] = cited from earlier work; remark: listed apart in the source
[11] = system: MCF-7 cells; assay: Wound healing / gap closure migration assay, MCF-7; format: cell-based, human; conditions: extrapolated from the results in FIG. 35
Description: Cells were cultured in 24-well culture plates (Cytoselect CBA-120, 0.9 mm wound healing/gap closure migration assay) for 24 h with wound healing insert in place.
Protocol: Warm up the 24-well plate (CBA-120, Cell BioLabs Inc.) with 0.9 mm CytoSelect Wound Healing Inserts at room temperature for 10 minutes. Using sterile forceps, orient the desired number of inserts in the plate wells with their “wound field” aligned in the same direction. Create a cell suspension containing 0.5-1.0×10^6 cells/ml in media containing 10% fetal bovine serum (FBS). Add 500 μL of cell suspension to each well by carefully inserting the pipette tip through the open end at the top of the insert. For optimal cell dispersion, add 250 μL of cell suspension to either side of the open ends at the top of the insert. Incubate cells in a cell culture incubator for 12-24 hours. Carefully remove the insert from the well to begin the wound healing assay. Use sterile forceps to grab and lift the insert slowly from the plate well. Slowly aspirate and discard the media from the wells. Wash wells with media to remove dead cells and debris. Finally, add media to wells to keep cells hydrated. Repeat wash if wells still have debris or unattached cells. When washing is complete, add media with FBS and/or compounds to continue cell culture and wound healing process. Agents that inhibit or stimulate cell migration can be added directly to the wells. Incubate cells in a cell culture incubator (2 hours) and then wash cells with PBS and then add fresh media without compounds. Incubate 12-24 hours before wash and fixing. Remove the fixation solution and add 400 μL of Cell Stain Solution to each well. Allow the stain to incubate with the cells for 15 minutes at room temperature. Aspirate and discard the solution. Carefully wash each stained well 3× with deionized water. Discard washes and allow cells to dry at room temperature. Cells that migrated into the wounded area or protruded from the border of the wound were visualized and photographed under an inverted microscope. Determine the surface area of the defined wound area: Total Surface Area=0.9 mm x length. Determine the surface area of the migrated cells into the wound area: Migrated Cell Surface Area=length of cell migration (mm)×2×length. Percent Closure (%)=Migrated Cell Surface Area/Total Surface Area x 100.

[12] = system: enlarged lysosomes in fibroblasts; conditions: about 6 mM α-CD vs about 8 mM HP-β-CD; cited from earlier work
[13] = system: BBB; conditions: cited from earlier work
[14] = system: NPC cells; conditions: cited from earlier work
[15] = system: rats; conditions: cited from earlier work; for nephrosis, 1, 2, 3, 4, or 7 daily doses s.c.: 0.100 g/kg daily
[16] = system: rats; conditions: cited from earlier work
[17] = parenteral delivery; cited from earlier work
[18] = in vivo; cited from earlier work
[19] = system: human erythrocytes; conditions: cited from earlier work
[20] = system: transferrin endocytosis; conditions: 10 mM; cited from earlier work

Compound: OC[C@H]1O[C@@H]2O[C@H]3[C@H](O)[C@@H](O)[C@@H](O[C@H]4[C@H](O)[C@@H](O)[C@@H](O[C@H]5[C@H](O)[C@@H](O)[C@@H](O[C@H]6[C@H](O)[C@@H](O)[C@@H](O[C@H]7[C@H](O)[C@@H](O)[C@@H](O[C@H]1[C@H](O)[C@H]2O)O[C@@H]7CO)O[C@@H]6CO)O[C@@H]5CO)O[C@@H]4CO)O[C@@H]3CO [α-CD, alpha-cyclodextrin]
- ototoxicity [1]: did not show ototoxicity
- Solubility in water [2]: 130 to 145 mg/mL
- toxicity in HaCaT cells (proliferation, caspase activity, lactose dehydrogenase) [3]: lower toxicity
- oral absorption in rats [4]: 2-3%
- protection of A2E against oxidation [5]: not
- apoptotic cell death [6]: not apoptotic
- single dose i.v. LD50 [7]: 0.788/1.008 * g/kg
- phospholipids released ([8]; 10 mM): 30%
- extraction of cholesterol ([8]; erythrocytes): negligible
- decrease of plasma PLs [9]: 17.5%
- i.v. toxicity, 1 g daily [10]: 1 died
- dose with the same efficacy in preventing migration of cancer cells as 2000 mg/kg/d bCD [11]: 700 mg/kg/day
- reducing lysosomal storage [12]: more effective
- BBB breakdown [13]: 1 mM
- toxicity on BBB in vitro [13]: more toxic
- cholesterol accumulation [14]: can reduce cholesterol accumulation
- nephrosis, 1, 2, 3, 4, or 7 daily doses s.c. ([15]; listed as α-cyclodextrin): not apparent
- nephrosis, 1, 2, 3, 4, or 7 daily doses s.c. [15]: 0.100 no nephrosis
- deaths, daily doses s.c. ([15]; 1.000 g/kg daily, listed as α-cyclodextrin): 1 died after 2 days
- deaths, daily doses s.c. ([15]; 1.000 g/kg daily): one died after 2 days
- nephrosis, daily doses s.c. ([15]; 1.000 g/kg daily): 1.000 severe
- nephrosis, single dose s.c. ([16]; 0.100 g/kg): 0.100 no changes
- nephrosis, single dose s.c. ([16]; 1.000 g/kg): 1.000 changes seen
- excretion into the urine [17]: excreted almost completely in an intact form
- tolerance in cyclosporine eye-drops [18]: well tolerated
- hemolytic activity / tolerance of human erythrocytes [19]: lower than that of both β-CD and HP-β-CD; also recorded: tolerate α-CD better then β-CD
- reduction of transferrin endocytosis [20]: 20%
